{"source": "patent US20210300932A1", "about": "“CYCLIC PEPTIDES TARGETING ALPHA-4-BETA-7 INTEGRIN” (Zealand Pharma A/S, priority 2015, published 2021)", "key": {"[1]": {"system": "integrin alpha-4-beta-7-expressing T lymphocytes", "test": "In vivo T lymphocyte trafficking analyses in DSS-treated mice", "set-up": "species or system C57BI/6 mice", "procedure": "In Vivo T Lymphocyte Trafficking Analyses\n(§1) Animals. Female C57BI/6 mice (Charles River, St-Constant, Qc), weighting 16-19 g at delivery were used for this study. Following arrival in the animal facility, all animals were subjected to a general health evaluation. An acclimation period of 7-14 days was allowed before the beginning of the study.\nAdministration of DSS. Dextran sulfate sodium (DSS) was administered to C57B1/6 mice through addition to their drinking water at 2-3%. Mice accessed the DSS-treated water ad libitum over a 5-day period. Body weight and disease activity index (“DAI”) were measured on Day 5 in order to distribute DSS-treated animals in two uniform groups prior to dosing. Specific symptoms associated with colitis were scored based on the severity of each particular symptoms: 1—blood in stool (negative hemoccult, positive hemoccult, blood traces in stool visible, rectal bleeding); 2—stool consistency (normal, soft but still formed, very soft, diarrhea); 3—posture and fur (normal; ruffled fur; ruffled fur combined to slight hunched posture and slight dehydration; ruffled fur combined to hunched posture, dehydration and altered walking; moribund (euthanasia is mandatory before the animal reach this point). The overall DAI score was the sum of the three parameters (maximum score of 9). DAI assessment was performed on Day 5 only (prior to dosing). […]"}, "plasma proteins": {"system": "plasma proteins", "test": "Plasma protein binding determination, equilibrium dialysis, mouse plasma", "conditions": "CD-1, mouse, % recovery, Mouse plasma, equilibrium dialysis", "quoted_text": "(§2) An equilibrium dialysis (HTDialysis) method was used employing 50% plasma collected from CD-1 mice or Sprague-Dawley rats and incubated with K2EDTA. Test articles were assessed at 1 microM concentration in three replicates. Incubation time as 5 hours and plasma and buffer standards were assessed using LC/MS/MS. Percentage recovery was calculated as (Cbuffer+Cplasma)/[average]Cinitial, [average]Cinitial being measured in triplicate from the test samples prior to dialysis. Percentage of compound unbound was calculated as Cbuffer/Cplasma."}, "[2]": {"test": "Plasma protein binding determination, equilibrium dialysis, mouse plasma", "conditions": "first table", "quoted_text": "as §2"}, "in vitro": {"test": "in vitro", "conditions": "Control buffer/Buffer at 0.1 uM % Recovery", "quoted_text": "as §2"}, "in vivo": {"test": "in vivo", "conditions": "male, CD-1, mouse, po, 48 mg/kg", "quoted_text": "In Vivo Pharmacokinetic Assessments in Rodents\nOral bioavailability of test compounds was conducted by assessing plasma exposure of following one or two oral doses in mice and, in some cases, comparing said plasma exposure with that following a single intravenous dose of the same compound.\nBody weights were recorded on the day of dosing.\nFood restriction: Animals dosed p.o. were deprived of food overnight and fed ˜2 h following dosing.\nDosing: The formulation containing the test compound were administered p.o. by gavage with disposable feeding needles.\nSample collection: Terminal blood and tissue samples were collected under O2/CO2 anesthesia by cardiac puncture.\nSample processing/storage: All blood samples were transferred into K2EDTA tubes on wet ice and centrifuged within 5 min (3200×g for 5 min at 4° C.) to obtain plasma. Samples were stored frozen at −80° C. until bioanalysis.\nBioanalytical Method Qualification and Sample Analysis:\nInstrumentation: AB Sciex API 4000 Q-TRAP MS/MS system equipped with an Agilent LC system with a binary pump, a solvent degasser, a thermostatted column compartment, a CTC autosampler and a divert valve installed between the column and mass spectrometer inlet."}, "Aqueous solubility assay": {"test": "Aqueous solubility assay", "type": "physicochemical", "conditions": "PBS pH 7.4, four hours, room temperature", "procedure": "Solutions were incubated for four hours at room temperature and stirred at 600 rpm and run in triplicate. Centrifugation was performed for 15 minutes at 6000 rpm and solution concentration was determined using HPLC-UV (photodiode array detector acquiring between 220 nm, and 300 nm wavelengths)."}, "[3]": {"system": "DSS experimental model of ulcerative colitis", "test": "8-Day efficacy study in DSS model (therapeutic)", "type": "in vivo, C57BI/6 mice", "conditions": "for reduction of lesion length vs vehicle group / reduction of DAI score on Day 8 vs DSS+vehicle: Day 5 to Day 8", "source_text": "The STDs in ascending order bracketing the study samples and dosing solutions • 1. The study samples • 2.\nDescription of Tested Compounds\nas §1\nOral dosing of the test article and the vehicle. From Day 5 to Day 8, nacellins and the vehicle were administered as a single slow bolus (over approximately 5 seconds) via oral route (p.o.), according to the procedure of administration of solution by gavage: the animal was firmly restrained. A bulb-tipped gastric gavage needle of 22G was passed through the side of the mouth and was advanced towards the oesophagus. The test articles and the vehicle were dosed orally at 5 mL/kg.\nIntraperitoneal dosing of the test articles and the vehicle. On day 5, DATK32 antibody was administered in only on Day 5, as a single slow bolus (over approximately 5 seconds) via the i.p. route. […] Intraperitoneal administration was performed accordingly to the following procedure: the mouse was restrained manually and held with the head and body tilted downward. The tip of the needle (27 G) was inserted through the skin and just past the abdominal wall. A short pull back of the plunger of the syringe was done prior to administration of the solution to make sure that the syringe was not inserted in any abdominal organ (fluid would be pulled back into the syringe in this case).\nInflammation Score. Once the mouse was euthanized, the colon was collected and its length was measured. Lesion length was also measured. Colon inflammation was scored based on severity of oedema and ulceration.\nDisease Activity Index (DAI) assessment. Body weight and DAI were measured on Day 5 in order to distribute DSS-treated animals in two uniform groups prior dosing. Specific symptoms associated to UC were scored based on the severity of each particular symptoms: 1—blood in stool (negative hemoccult, positive hemoccult, blood traces in stool visible, rectal bleeding); 2—stool consistency (normal, soft but still formed, very soft, diarrhea); 3—posture and fur (normal; ruffled fur; ruffled fur combined to slight hunched posture and slight dehydration; ruffled fur combined to hunched posture, dehydration and altered walking; moribund (euthanasia is mandatory before the animal reach this point). The overall DAI score was the sum of the three parameters (maximum score 9). Body weight measurement and DAI assessment were performed also on Day 8 to evaluate the effect of the treatments.\nCollection of samples. On Day 8, five hours after ET02451-01, ET02452-01 and vehicle dosing, the animals were euthanized by cardiac puncture under general anesthesia, according to the “Guide to the Care and Use of Experimental Animals” published by the CCAC. Blood was transferred in a Sarstedt tube containing EDTA. Mesenteric and peripheral (inguinal, auxiliary and brachial) lymph nodes were collected and transferred on ice in corresponding tubes containing cold PBS. Nodes were kept on ice until tissue preparation.\nCell population labeling. Blood was withdrawn by cardiac puncture and collected on EDTA-coated tubes. Mensenteric lymph nodes (MLN) and peripheral lymph nodes (PLN) were also collected. Mononuclear cells from the tissues will be isolated using density gradient (Lympholyte) and they were stained with fluorescent antibodies. […] After washes, cells were fixed using BD Fix Solution. Percentage of different subpopulations of T lymphocytes were then analysed using FACSCalibur cytometer. Antibodies employed were the same as listed for the single-dose PD studies above."}}}
{"smiles": "CC(C)C[C@@H]1NC(=O)[C@H](Cc2ccccc2)NC(=O)[C@@H]2CCCN2[C@H](C(=O)NC(C)(C)C)[C@H](C)NC(=O)[C@H]([C@@H](C)O)NC(=O)[C@H](CC(=O)O)NC1=O", "note": "[Compound No. 5]", "values": [{"measurement": "homing to the MLN", "setting": "[1]; single oral dose 100 mg/kg", "value": "significant reduction of homing"}, {"measurement": "recovery at 5 hours, 1 microM", "setting": "plasma proteins; first table", "value": 130, "unit": "%"}, {"measurement": "recovery at 5 hours, 1 microM", "setting": "plasma proteins; second table", "value": 97, "unit": "%"}, {"measurement": "Control buffer/Buffer at 0.1 uM Cdonor/Creciever", "setting": "[2]", "value": 80, "unit": "%"}, {"measurement": "recovery at 5 hours, 0.1 uM", "setting": "in vitro", "value": 108, "unit": "%"}, {"measurement": "Cmax", "setting": "in vivo", "value": "~1.6", "unit": "µg/mL"}]}
{"smiles": "CC(C)C[C@@H]1NC(=O)[C@H](Cc2ccc(-c3ccccc3)cc2)NC(=O)[C@@H]2CCCN2[C@H](C(=O)NC(C)(C)C)[C@H](C)NC(=O)[C@H]([C@@H](C)O)NC(=O)[C@H](CC(=O)O)NC1=O", "note": "[Compound No. 12]", "values": [{"measurement": "recovery at 5 hours, 1 microM", "setting": "plasma proteins; second table", "value": 89, "unit": "%"}, {"measurement": "Control buffer/Buffer at 0.1 uM Cdonor/Creciever", "setting": "[2]", "value": 94, "unit": "%"}, {"measurement": "recovery at 5 hours, 0.1 uM", "setting": "in vitro", "value": 128, "unit": "%"}]}
{"smiles": "CC(C)C[C@@H]1NC(=O)[C@@H](Cc2ccc(O)cc2)NC(=O)[C@@H]2CCCN2[C@H](C(=O)NC(C)(C)C)[C@H](C)NC(=O)[C@H]([C@@H](C)O)NC(=O)[C@H](CC(=O)O)NC1=O", "note": "[Compound No. 42]", "values": [{"measurement": "Determined Concentration Rep 2", "setting": "Aqueous solubility assay", "value": 960.0, "unit": "µM"}]}
{"smiles": "CC(C)C[C@@H]1NC(=O)[C@@H](Cc2ccncc2)NC(=O)[C@@H]2CCCN2[C@H](C(=O)NC(C)(C)C)[C@H](C)NC(=O)[C@H]([C@@H](C)O)NC(=O)[C@H](CC(=O)O)NC1=O", "note": "[Compound No. 62]", "values": [{"measurement": "Determined Concentration Rep 2", "setting": "Aqueous solubility assay", "value": 988.2, "unit": "µM"}]}
{"smiles": "CC(C)C[C@@H]1NC(=O)C2(CCCC2)NC(=O)[C@@H]2CCCN2[C@H](C(=O)NC(C)(C)C)[C@H](C)NC(=O)[C@H]([C@@H](C)O)NC(=O)[C@H](CC(=O)O)NC1=O", "note": "[Compound No. 88]", "values": [{"measurement": "Determined Concentration Rep 3", "setting": "Aqueous solubility assay", "value": 934.8, "unit": "µM"}]}
{"smiles": "CC(C)C[C@@H]1NC(=O)CN(C)C(=O)[C@H](Cc2ccc(O)cc2)NC(=O)[C@@H]2CCCN2[C@H](C(=O)NC(C)(C)C)[C@H](C)NC(=O)[C@H]([C@@H](C)O)NC(=O)[C@H](CC(=O)O)NC1=O", "note": "[Compound No. 105]", "values": [{"measurement": "homing to the MLN", "setting": "[1]; single oral dose 200 mg/kg", "value": "significant and robust attenuation of homing"}]}
{"smiles": "CC(C)C[C@@H]1NC(=O)c2ccc(-c3ccnc4ccccc34)c(c2)CNC(=O)[C@@H]2CCCN2[C@H](C(=O)NC(C)(C)C)[C@H](C)NC(=O)[C@H]([C@@H](C)O)NC(=O)[C@H](CC(=O)O)NC1=O", "note": "[Compound No. 341]", "values": [{"measurement": "reduction of lesion length vs vehicle group", "setting": "[3]; 40 mg/kg p.o.", "value": 53, "unit": "%"}, {"measurement": "reduction of DAI score on Day 8 vs DSS+vehicle", "setting": "[3]; 40 mg/kg p.o., b.i.d.", "value": "did not have any beneficial effect"}, {"measurement": "CD3+CD4+α4β7+ cell population in mesenteric lymph nodes", "setting": "[3]; 65 mg/kg i.p.", "value": "significant decrease"}, {"measurement": "reduction of colon inflammation score vs vehicle", "setting": "[3]; 65 mg/kg i.p.", "value": 39, "unit": "%"}, {"measurement": "reduction of DAI score on Day 8 vs DSS+vehicle", "setting": "[3]; 65 mg/kg i.p.", "value": 46, "unit": "%"}, {"measurement": "reduction of lesion length vs vehicle group", "setting": "[3]; 65 mg/kg i.p.", "value": 20, "unit": "%"}]}
{"smiles": "CC(C)C[C@@H]1NC(=O)[C@H](Cc2c[nH]c3ccccc23)NC(=O)[C@@H]2CCCN2[C@H](C(=O)NC(C)(C)C)[C@H](C)NC(=O)[C@H]([C@@H](C)O)NC(=O)[C@H](CC(=O)O)NC1=O", "note": "[ET00762]", "values": [{"measurement": "Control buffer/Buffer at 0.1 uM Cdonor/Creciever", "setting": "[2]", "value": 79, "unit": "%"}]}
{"smiles": "CC(C)NCC(O)COc1cccc2ccccc12", "note": "(stereo not drawn) [Propranalol, propranolol, reference compound]", "values": [{"measurement": "% unbound (Cbuffer/Cplasma) 1", "setting": "[2]; Mouse plasma, 1 microM, replicate 1", "value": 22.8, "unit": "%"}]}
